{"source": "patent US8093210B2", "about": "“Treatment of sepsis with 5-ethyl-1-phenyl-2(1H)-pyridone” (Solanan, Inc., priority 2008, dated 2012)", "key": {"IL-6": {"system": "IL-6", "assay": "Serum IL-6 (ELISA) in LPS/D-galactosamine model of sepsis (Example 5)", "format": "in vivo, mice", "details": "90 minutes after the treatment", "description": "(§1) Mice were treated simultaneously with LPS (10 μg/kg) and D-galactosamine (600 mg/kg) (Galanos C, Freudenberg M A, Reutter W. […] They were anesthetized with halothane and blood was collected at different times by cardiac puncture and centrifuged to separate serum. The serum levels of alanine transaminase (ALT) and aspartate transaminase (AST) were measured by a commercial diagnostic company (Idexx Laboratories). The serum levels of tumor necrosis factor-alpha (TNF-α), interleukin-6 (IL-6) and interleukin-12 (IL-12) were determined by commercially available mouse enzyme-linked immunosorbent assay (ELISA) kits (BD BioSciences, San Jose, Calif.).\n(§2) The methodology utilized in Example 4 was used to measure and analyze the serum enzyme data for statistical significance. The serum levels of proinflammatory cytokines between the 5-EPP treated and saline control groups were analyzed for statistical significance by one-way ANOVA and a Tukey's multiple comparison test (Prism™ for Windows 4.02, Graphpad Software, Inc. San Diego, Calif.)."}, "[1]": {"system": "LPS/D-galactosamine-septic shock", "assay": "Lethal LPS/D-galactosamine septic shock in rats (Example 2)", "format": "in vivo, Juvenile Sprague-Dawley rats", "details": "monitored for 66 hours", "description": "The methodology utilized in Example 1 was used to treat rats. Juvenile Sprague-Dawley rats were induced with LPS/D-galactosamine-septic shock. The animals were monitored for 66 hours after treatment and the resulting data analyzed by the same statistical tests and criteria as in Example 1."}, "[2]": {"system": "LPS/D-galactosamine-induced mortality", "assay": "LPS/D-galactosamine-induced mortality in mice, survival curve (Example 7, FIG. 2)", "format": "in vivo", "details": "LPS 20 μg/kg + D-galactosamine 600 mg/kg, monitored 4 days", "description": "The effects of treatment with 5-EPP on LPS/D-galactosamine-induced mortality was investigated in mice. At least 10 mice in each group were challenged with either a lethal dose of LPS (20 μg/kg) and D-galactosamine (600 mg/kg) or the same dose of LPS/D-galactosamine+different doses of 5-EPP by intraperitoneal route and the morality in each group was monitored at different times for 4 days in order to evaluate the protective effects of 5-EPP against LPS/D-galactosamine-induced mortality.\nHowever, the survival of mice treated with 25 mg/kg of 5-EPP was 45% and 100% at 50 mg/kg, 100 mg/kg and 200 mg/kg with p≦0.0001 as determined by Chi square test."}, "TNF-α in THP-1 cells": {"system": "TNF-α in THP-1 cells", "assay": "Secreted and cell-associated TNF-α in PMA-transformed THP-1 cells exposed to LPS (ELISA, Example 6)", "format": "cell-based, human", "details": "3 hr, mean ± SEM, four replicates; for Secreted TNF-α: THP-1, 1 ng/mL LPS; for Cell-associated TNF-α: THP-1 lysate, 1 ng/mL LPS", "description": "The effects of 5-EPP on secreted and cell associated TNF-α was examined in vitro using phorbol myristate acetate-transformed (PMA; Sigma, St. Louis, Mo.) human monocytic cells, THP-1 (ATCC, Manassas, Va.) according to the technique described by Grattendick et al. (International Immunopharmacology 2008, 8; 679-87). Briefly, cells were incubated for 3 hr on 96-well plates with culture media, 1 ng/mL LPS, or 1 ng/mL LPS 0-200 μg/mL 5-EPP before culture media were collected and analyzed for the presence of secreted TNF-α via a commercially available enzyme-linked immunosorbent assay (ELISA) kit (BD Biosciences, San Diego, Calif.). Separately, identically treated cells were lysed and their cell-associated TNF-α levels were determined via ELISA. All treatment groups were simultaneously compared using one-way ANOVA and Tukey's multiple comparison tests.\nThe values are expressed in pg/mL as mean±standard error of the mean for four replicates at all concentrations in each case."}, "THP-1 cells": {"system": "THP-1 cells", "assay": "MTS cytotoxicity analysis on THP-1 cells", "format": "cell-based", "details": "LPS 1 ng/mL and 5-EPP 0-500 μg/mL for 12 hours", "description": "Cytotoxicity analysis was performed on THP-1 cells treated with various concentrations of 5-EPP using the MTS (3-(4,5-dimethylthiazol-2-yl)-5-(3-carboxymethoxyphenyl)-2-(4-sulfophenyl)-2H-tetrazolium, inner salt) assay (Promega, Madison, Wis.)."}, "TNF-α": {"system": "TNF-α", "assay": "Serum TNF-α (ELISA) in LPS/D-galactosamine model of sepsis (Example 5)", "format": "in vivo, mice", "details": "90 minutes after the treatment", "description": "as §1, §2"}, "[3]": {"assay": "pH of 20 mg/mL solutions (Example 9)", "format": "physicochemical", "description": "The pH of two freshly prepared solutions of the compound each at 20 mg/mL concentration was measured with a calibrated Mettler MP-220 pH meter equipped with a pH electrode (model 413). The pH of the solution made in water averaged 7.4 as compared to solutions made in isotonic saline in which the pH averaged 6.21 using triplicate samples in each case, as shown in the table below."}, "[4]": {"assay": "Solubility in water and isotonic saline (Example 9)", "format": "physicochemical", "details": "for solubility: thermodynamic from solid, room temperature, colorless, clear solution, read-out: solubility (soluble at)", "description": "All solutions were prepared by weighing the chemical, transferring his solid into a polypropylene tube or polystyrene tube and then adding either water or saline to the final desired volume. The compound was dissolved by intermittent mixing with a vortex mixer, gentle heating in a warm water bath (40-45° C.) and sonication (3×15 min.)."}, "[5]": {"details": "DI Water, final 5-EPP 20.0 mg/mL"}, "[6]": {"details": "Isotonic saline, final 5-EPP 20.0 mg/mL"}, "[7]": {"details": "Isotonic saline, final 5-EPP 20.1 mg/mL"}}, "note": "“And” between values parts separate entries of the source, which are not always exact repeats. Identical values can stand only once. Like-named read-outs stand apart in the source and are kept apart here."}
{"smiles": "CCc1ccc(=O)n(-c2ccccc2)c1", "note": "[5-EPP, 5-ethyl-1-phenyl-2-(1H)-pyridone]", "values": [{"measurement": "serum level of IL-6", "setting": "IL-6; 50 mg/kg", "value": "9,980 ± 564 pg/mL"}, {"measurement": "serum level of IL-6", "setting": "IL-6; 100 mg/kg", "value": "5,111 ± 343 pg/mL"}, {"measurement": "serum level of IL-6", "setting": "IL-6; 200 mg/kg", "value": "3,578 ± 421 pg/mL"}, {"measurement": "mortality", "setting": "[1]; 75 mg/kg", "value": 14.3, "unit": "% mortality"}, {"measurement": "mortality", "setting": "[1]; 200 mg/kg", "value": 12.5, "unit": "% mortality"}, {"measurement": "survival", "setting": "[2]; 25 mg/kg ip", "value": 45, "unit": "%"}, {"measurement": "survival", "setting": "[2]; 50 mg/kg ip", "value": 100, "unit": "%"}, {"measurement": "survival", "setting": "[2]; 100 mg/kg ip", "value": 100, "unit": "%"}, {"measurement": "survival", "setting": "[2]; 200 mg/kg ip", "value": 100, "unit": "%"}, {"measurement": "Secreted TNF-α", "setting": "TNF-α in THP-1 cells; 10 μg/mL 5-EPP", "value": "5382.8 ± 91.8", "unit": "pg/mL"}, {"measurement": "Secreted TNF-α", "setting": "TNF-α in THP-1 cells; 33 μg/mL 5-EPP", "value": "3261.5 ± 94.1", "unit": "pg/mL"}, {"measurement": "Secreted TNF-α", "setting": "TNF-α in THP-1 cells; 100 μg/mL 5-EPP", "value": "2073.7 ± 60.7", "unit": "pg/mL"}, {"measurement": "Secreted TNF-α", "setting": "TNF-α in THP-1 cells; 200 μg/mL 5-EPP", "value": "1469.7 ± 58.9", "unit": "pg/mL"}, {"measurement": "Cell-associated TNF-α", "setting": "TNF-α in THP-1 cells; 10 μg/mL 5-EPP", "value": "35.4 ± 3.1", "unit": "pg/mL"}, {"measurement": "Cell-associated TNF-α", "setting": "TNF-α in THP-1 cells; 33 μg/mL 5-EPP", "value": "25.9 ± 1.6", "unit": "pg/mL"}, {"measurement": "Cell-associated TNF-α", "setting": "TNF-α in THP-1 cells; 100 μg/mL 5-EPP", "value": "19.0 ± 0.9", "unit": "pg/mL"}, {"measurement": "Cell-associated TNF-α", "setting": "TNF-α in THP-1 cells; 200 μg/mL 5-EPP", "value": "10.1 ± 1.3", "unit": "pg/mL"}, {"measurement": "concentration at which cytotoxicity appears (no cytotoxicity below)", "setting": "THP-1 cells", "value": "at least 300 μg/mL"}, {"measurement": "serum level of TNF-α", "setting": "TNF-α; 12.5 mg/kg", "value": "5,220 ± 1280 pg/mL"}, {"measurement": "serum level of TNF-α", "setting": "TNF-α; 25 mg/kg", "value": "2,780 ± 481 pg/mL"}, {"measurement": "serum level of TNF-α", "setting": "TNF-α; 50 mg/kg", "value": "576 ± 79", "unit": "pg/mL"}, {"measurement": "serum level of TNF-α", "setting": "TNF-α; 100 mg/kg", "value": "340 ± 34", "unit": "pg/mL"}, {"measurement": "pH of the solution, average", "setting": "[3]; 20 mg/mL in isotonic saline", "value": 6.21}, {"measurement": "pH of the solution, average", "setting": "[3]; 20 mg/mL in water", "value": 7.4}, {"measurement": "pH", "setting": "[3]; [5]", "value": "7.29 and 7.24"}, {"measurement": "pH", "setting": "[3]; [6]", "value": 6.13}, {"measurement": "pH", "setting": "[3]; [7]", "value": 6.20}, {"measurement": "Results (solubility)", "setting": "[4]; [5]", "value": "soluble"}, {"measurement": "Results (solubility)", "setting": "[4]; [6]", "value": "soluble"}, {"measurement": "Results (solubility)", "setting": "[4]; [7]", "value": "soluble"}, {"measurement": "solubility", "setting": "[4]; saline or isotonic, saline", "value": 20, "unit": "mg/mL"}, {"measurement": "precipitation of dissolved compound", "setting": "[4]; standing at room temperature overnight or following refrigeration", "value": "no precipitation was observed"}, {"measurement": "solubility", "setting": "[4]; water", "value": 20, "unit": "mg/mL"}, {"measurement": "concentrations that do not completely dissolve", "setting": "[4]; water or saline", "value": "≥ 30000", "unit": "µg/mL"}]}
